Patent US9815819B2, “Complement pathway modulators and uses thereof” (priority 2012, dated 2017)
Like-named read-outs stand apart in the source and are kept apart here.

Target: Recombinant human factor D (Homo sapiens (Human), UniProt P00746)
Assay: Human Complement Factor D Assay: Method 1
Assay type: biochemical
Conditions: Factor D inhibition, Method 1: 10 nM factor D, 1 hour incubation with compound at room temperature, substrate Z-Lys-thiobenzyl, fluorescence readout
Experimental: Recombinant human factor D (expressed in E. coli and purified using standard methods) at 10 nM concentration is incubated with test compound at various concentrations for 1 hour at room temperature in 0.1 M Hepes buffer, pH 7.5, containing 1 mM MgCl2, 1 M NaCl and 0.05% CHAPS. […] IC50 values are calculated from percentage of inhibition of complement factor D-activity as a function of test compound concentration.

Sequence of Recombinant human factor D (P00746 26-253): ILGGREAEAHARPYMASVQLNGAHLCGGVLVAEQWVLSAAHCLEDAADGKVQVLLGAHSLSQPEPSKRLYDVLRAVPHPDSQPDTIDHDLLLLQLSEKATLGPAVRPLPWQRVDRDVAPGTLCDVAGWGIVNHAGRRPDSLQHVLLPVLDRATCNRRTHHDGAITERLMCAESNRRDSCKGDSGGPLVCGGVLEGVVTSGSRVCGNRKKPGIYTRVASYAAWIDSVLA

| IC50 (read-out: IC50) [µM] | SMILES | IC50 (IC50 (μM)) [µM] |
| --- | --- | --- |
|  | NC(=O)c1nn(CC(=O)N2[C@@H]3C[C@@H]3C[C@H]2C(=O)NC2CCCC(c3ccccc3)C2)c2ccccc12 (single isomer, unassigned) [Example 78] | 2 |
|  | NC(=O)c1nn(CC(=O)N2[C@@H]3C[C@@H]3C[C@H]2C(=O)NC2CCCC(c3ccccc3)C2)c2ccccc12 (single isomer, unassigned) [Example 79] | 0.114 |
|  | NC(=O)c1nn(CC(=O)N2[C@@H]3C[C@@H]3C[C@H]2C(=O)NC2CCCC(c3ccccc3)C2)c2ccccc12 (single isomer, unassigned) [Example 80] | 0.475 |
|  | NC(=O)c1nn(CC(=O)N2[C@@H]3C[C@@H]3C[C@H]2C(=O)NC2CCCC(c3ccccc3)C2)c2ccccc12 (single isomer, unassigned) [Example 81] | 5.65 |
| 0.147 | CC(=O)c1nn(CC(=O)N2[C@@H]3C[C@@H]3C[C@H]2C(=O)N[C@@H]2C[C@H]2c2ccccc2)c2ccncc12 [Example 3, (1R,3S,5R)-2-[2-(3-Acetyl-pyrazolo[4,3-c]pyridin-1-yl)-acetyl]-2-aza-bicyclo[3.1.0] hexane-3-carboxylic acid ((1R,2S)-2-phenyl-cyclopropyl)-amide] |  |
| 0.702 | CC(=O)c1nn(CC(=O)N2[C@@H]3C[C@@H]3C[C@H]2C(=O)N[C@H]2C[C@@H]2c2ccccc2)c2cnccc12 [Example 4, (1R,3S,5R)-2-[2-(3-Acetyl-pyrazolo[3,4-c]pyridin-1-yl)-acetyl]-2-aza-bicyclo[3.1.0] hexane-3-carboxylic acid ((1S,2R)-2-phenyl-cyclopropyl)-amide] |  |
| 0.106 | CC(=O)c1nn(CC(=O)N2[C@@H]3C[C@@H]3C[C@H]2C(=O)N[C@@H]2C[C@H]2c2ccccc2)c2cnccc12 [Example 5, (1R,3S,5R)-2-[2-(3-Acetyl-pyrazolo[3,4-c]pyridin-1-yl)-acetyl]-2-aza-bicyclo[3.1.0] hexane-3-carboxylic acid ((1R,2S)-2-phenyl-cyclopropyl)-amide] |  |
| 0.123 | CC(=O)c1nn(CC(=O)N2[C@@H]3C[C@@H]3C[C@H]2C(=O)N[C@@H]2C[C@H]2c2ccccc2)c2ncccc12 [Example 8, (1R,3S,5R)-2-[2-(3-Acetyl-pyrazolo[3,4-b]pyridin-1-yl)-acetyl]-2-aza-bicyclo[3.1.0]hexane-3-carboxylic acid ((1R,2S)-2-phenyl-yclopropyl)-amide] |  |
| 0.065 | NC(=O)c1nn(CC(=O)N2[C@@H]3C[C@@H]3C[C@H]2C(=O)N[C@@H]2C[C@H]2c2ccccc2)c2cnccc12 [Example 9, 1-{2-Oxo-2-[(1R,3S,5R)-3-((1R,2S)-2-phenyl-cyclopropylcarbamoyl)-2-aza-bicyclo[3.1.0]hex-2-yl]-ethyl}-1H-pyrazolo[3,4-c]pyridine-3-carboxylic acid amide] |  |
| 0.172 | NC(=O)c1nn(CC(=O)N2[C@@H]3C[C@@H]3C[C@H]2C(=O)N[C@@H]2C[C@H]2c2ccccc2)c2ncccc12 [Example 13, 1-{2-Oxo-2-[(1R,3S,5R)-3-((1R,2S)-2-phenyl-cyclopropylcarbamoyl)-2-aza-bicyclo[3.1.0]hex-2-yl]-ethyl}-1H-pyrazolo[3,4-b]pyridine-3-carboxylic acid amide] |  |
| 0.118 | NC(=O)c1nn(CC(=O)N2[C@@H]3C[C@@H]3C[C@H]2C(=O)N[C@@H]2C[C@H]2c2ccccc2)c2ccncc12 [Example 14, 1-{2-Oxo-2-[(1R,3S,5R)-3-((1R,2S)-2-phenyl-cyclopropylcarbamoyl)-2-aza-bicyclo[3.1.0]hex-2-yl]-ethyl}-1H-pyrazolo[4,3-c]pyridine-3-carboxylic acid amide] |  |
| 0.115 | Cc1cc2c(C(N)=O)nn(CC(=O)N3[C@@H]4C[C@@H]4C[C@H]3C(=O)N[C@@H]3C[C@H]3c3ccccc3)c2cn1 [Example 15, 5-Methyl-1-{2-oxo-2-[(1R,3S,5R)-3-((1R,2S)-2-phenyl-cyclopropylcarbamoyl)-2-aza-bicyclo[3.1.0]hex-2-yl]-ethyl}-1H-pyrazolo[3,4-]pyridine-3-carboxylic acid amide] |  |
| 1.24 | NC(=O)c1nn(CC(=O)N2C[C@H](F)C[C@H]2C(=O)N[C@@H]2C[C@H]2c2ccccc2)c2ccncc12 [Example 16, 1-{2-[(2S,4R)-4-Fluoro-2-((1R,2S)-2-phenyl-cyclopropylcarbamoyl)-pyrrolidin-1-yl]-2-oxo-ethyl}-1H-pyrazolo[4,3-c]pyridine-3-carboxylic acid amide] |  |
| 0.117 | NC(=O)c1nn(CC(=O)N2C[C@H](F)C[C@H]2C(=O)N[C@@H]2C[C@H]2c2ccccc2)c2ncccc12 [Example 17, 1-{2-[(2S,4R)-4-Fluoro-2-((1R,2S)-2-phenyl-cyclopropylcarbamoyl)-pyrrolidin-1-yl]-2-oxo-ethyl}-1H-pyrazolo[3,4-b]pyridine-3-carboxylic acid amide] |  |
| 0.031 | CCc1cc2c(C(N)=O)nn(CC(=O)N3[C@@H]4C[C@@H]4C[C@H]3C(=O)N[C@@H]3C[C@H]3c3ccccc3)c2cn1 [Example 19, 5-Ethyl-1-{2-oxo-2-[(1R,3S,5R)-3-((1R,2S)-2-phenyl-cyclopropylcarbamoyl)-2-aza-bicyclo[3.1.0]hex-2-yl]-ethyl}-1H-pyrazolo[3,4-c]pyridine-3-carboxylic acid amide] |  |
| 1.4 | NC(=O)c1nn(CC(=O)N2[C@@H]3C[C@@H]3C[C@H]2C(=O)N[C@H]2C[C@@H]2c2ccccc2Cl)c2cnccc12 [Example 21, 1-(2-{(1R,3S,5R)-3-[(1S,2R)-2-(2-Chloro-phenyl)-cyclopropylcarbamoyl]-2-aza-bicyclo[3.1.0]hex-2-yl}-2-oxo-ethyl)-1H-pyrazolo[3,4-c]pyridine-3-carboxylic acid amide] |  |
| 0.87 | CC(=O)c1nn(CC(=O)N2[C@@H]3C[C@@H]3C[C@H]2C(=O)N[C@]2(C)C[C@H]2c2ccccc2)c2cnccc12 [Example 22, (1R,3S,5R)-2-[2-(3-Acetyl-pyrazolo[3,4-c]pyridin-1-yl)-acetyl]-2-aza-bicyclo[3.1.0] hexane-3-carboxylic acid ((1R,2S)-1-methyl-2-phenyl-cyclopropyl)-amide] |  |
| 13.2 | CC(=O)c1nn(CC(=O)N2[C@@H]3C[C@@H]3C[C@H]2C(=O)N[C@@]2(C)C[C@@H]2c2ccccc2)c2cnccc12 [Example 23, (1R,3S,5R)-2-[2-(3-Acetyl-pyrazolo[3,4-c]pyridin-1-yl)-acetyl]-2-aza-bicyclo[3.1.0] hexane-3-carboxylic acid ((1S,2R)-1-methyl-2-phenyl-cyclopropyl)-amide] |  |

| SMILES | IC50 (read-out: IC50) [µM] | IC50 (IC50 (μM)) [µM] |
| --- | --- | --- |
| NC(=O)c1nn(CC(=O)N2[C@@H]3C[C@@H]3C[C@H]2C(=O)NC2CC2(F)c2ccccc2F)c2ccccc12 (single isomer, unassigned) [Example 50] | 3.88 |  |
| NC(=O)c1nn(CC(=O)N2[C@@H]3C[C@@H]3C[C@H]2C(=O)NC2CC2(F)c2ccccc2F)c2ccccc12 (single isomer, unassigned) [Example 51] | 0.992 |  |
| NC(=O)c1nn(CC(=O)N2[C@@H]3C[C@@H]3C[C@H]2C(=O)NC2CC2(F)c2ccccc2F)c2ccccc12 (single isomer, unassigned) [Example 52] | 0.367 |  |
| NC(=O)c1nn(CC(=O)N2[C@@H]3C[C@@H]3C[C@H]2C(=O)NC2CC2(F)c2ccccc2F)c2ccccc12 (single isomer, unassigned) [Example 53] | 0.036 |  |
| NC(=O)c1nn(CC(=O)N2[C@@H]3C[C@@H]3C[C@H]2C(=O)NC2CC2c2ccc(F)cc2F)c2ccccc12 (single isomer, unassigned) [Example 74] | 3.76 |  |
| NC(=O)c1nn(CC(=O)N2[C@@H]3C[C@@H]3C[C@H]2C(=O)NC2CC2c2ccc(F)cc2F)c2ccccc12 (single isomer, unassigned) [Example 75] | 7.76 |  |
| NC(=O)c1nn(CC(=O)N2[C@@H]3C[C@@H]3C[C@H]2C(=O)NC2CC2c2ccc(F)cc2F)c2ccccc12 (single isomer, unassigned) [Example 76] | 0.036 |  |
| NC(=O)c1nn(CC(=O)N2[C@@H]3C[C@@H]3C[C@H]2C(=O)NC2CC2c2ccc(F)cc2F)c2ccccc12 (single isomer, unassigned) [Example 77] | 0.64 |  |
| CC(=O)c1nn(CC(=O)N2[C@@H]3C[C@@H]3C[C@H]2C(=O)N[C@H]2C[C@@H]2c2ccccc2)c2ccccc12 [Example 1, (1R,3S,5R)-2-[2-(3-Acetyl-indazol-1-yl)-acetyl]-2-aza-bicyclo[3.1.0]hexane-3-carboxylic acid((1S,2R)-2-phenyl-cyclopropyl)-amide] | 0.386 |  |
| CC(=O)c1nn(CC(=O)N2[C@@H]3C[C@@H]3C[C@H]2C(=O)N[C@@H]2C[C@H]2c2ccccc2)c2ccccc12 [Example 2, (1R,3S,5R)-2-[2-(3-Acetyl-indazol-1-yl)-acetyl]-2-aza-bicyclo[3.1.0] hexane-3-carboxylic acid ((1R,2S)-2-phenyl-cyclopropyl)-amide] | 0.029 |  |
| CO[C@H]1[C@@H](C(=O)N[C@@H]2C[C@H]2c2ccccc2)N(C(=O)Cn2nc(C(C)=O)c3ccccc32)C[C@@H]1F [Example 10, (2S,3S,4S)-1-[2-(3-Acetyl-indazol-1-yl)-acetyl]-4-fluoro-3-methoxy-pyrrolidine-2-carboxylic acid ((1R,2S)-2-phenyl-cyclopropyl)-amide] | 0.04 |  |
| NC(=O)c1nn(CC(=O)N2[C@@H]3C[C@@H]3C[C@H]2C(=O)N[C@@H]2C[C@H]2c2ccccc2)c2ccccc12 [Example 12, 1-{2-Oxo-2-[(1R,3S,5R)-3-((1R,2S)-2-phenyl-cyclopropylcarbamoyl)-2-aza-bicyclo[3.1.0]hex-2-yl]-ethyl}-1H-indazole-3-carboxylic acid amide] | 0.06 |  |
| NC(=O)c1nn(CC(=O)N2C[C@H](F)C[C@H]2C(=O)N[C@@H]2C[C@H]2c2ccccc2)c2ccccc12 [Example 18, 1-{2-[(2S,4R)-4-Fluoro-2-((1R,2S)-2-phenyl-cyclopropylcarbamoyl)-pyrrolidin-1-yl]-2-oxo-ethyl}-1H-indazole-3-carboxylic acid amide] | 0.044 |  |
